Experimental data as given in PubChem BioAssay AID179 (DTP/NCI, 2004).
Activity calls are given as the source filed them.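 The calls were made as follows: active = compounds giving half or more protection of infected cells from virus-caused growth loss, again on retest; inactive = the rest.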 Where a SMILES comes first, the peptide text is derived from it. [ ]: non-standard residue; d: D form. The star is where a group is joined. Cbz = O=C(OCc1ccccc1)*; Aib = CC(C)(N)C(=O)O; OBn = c1ccc(CO*)cc1

Test system: CEM cells HIV-1 protection, formazan growth assay
Assay: NCI AIDS Antiviral Assay
Details: for IC50: measured here: growth of uninfected CEM cells
Summary of the method: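 Human CEM cells, uninfected and HIV-1-infected, received five drug concentrations, and growth was read by soluble formazan assay. Compounds giving at least 50% protection were retested; reproducible 100% protection defined confirmed active.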

Compound: CC(NC(=O)C(C)(C)NC(=O)C(CC(=O)OCc1ccccc1)NC(=O)OCc1ccccc1)C(N)=O (stereo not drawn) (Cbz-Asp(OBn)-[Aib]-Ala-NH2; configuration not given here)
- EC50: > 200 µM
- IC50: > 200 µM

Compound: O=c1cc(Cl)c(Cl)nn1-c1ccccc1
- EC50: > 56.2 µM
- IC50: 9.77 µM

Compound: Cc1cccc(NC(=O)c2cc3cc(N=Nc4ccccc4Cl)ccc3oc2=O)c1
- EC50: > 24 µM
- IC50: > 24 µM

Compound: COc1ccc(OC)c2c3c(ccc12)C(C)(c1ccccc1)OC3=O (stereo not drawn)
- EC50: > 191 µM
- IC50: 89.1 µM

Compound: C[N+](C)(C)C1CC([N+](C)(C)C)C2c3ccccc3C21 (stereo not drawn)
- outcome: inactive

Compound: Cc1cc2c(cc1C)NC1=C(N2)OC(c2ccccc2C)C1=O (stereo not drawn)
- EC50: > 81.3 µM
- IC50: > 81.3 µM

Compound: Cc1c(COC(=O)NC(C)C)c(COC(=O)NC(C)C)c2n1CS(=O)C2 (stereo not drawn)
- EC50: > 200 µM
- IC50: 166 µM

Compound: N#Cc1c[nH]c(=O)[nH]c1=O
- EC50: > 200 µM
- IC50: > 200 µM

Compound: Cc1ccc(NC(=S)/N=C/C(C(=O)c2ccccc2)=C(\O)c2ccccc2)c(C)c1
- EC50: > 200 µM
- IC50: 31.6 µM

Compound: O=[N+]([O-])c1cccc(-c2cn3c(n2)Cc2ccccc2C3)c1
- EC50: > 200 µM
- IC50: 33.9 µM

Compound: COc1cc2oc(-c3ccc4c(c3)OCO4)c(OC)c(=O)c2c(OC)c1OC
- EC50: 155 µM
- IC50: > 200 µM

Compound: NC(CSS(=O)(=O)O)=NCCSc1ccc(Cl)cc1
- EC50: > 200 µM
- IC50: 60.3 µM

Compound: O=C(c1cccs1)N1CCCN(C(=O)c2cccs2)C1=S
- EC50: > 200 µM
- IC50: > 200 µM

Compound: O=C(O)/C=C/C(=O)Nc1ccccc1
- EC50: > 200 µM
- IC50: > 200 µM

Compound: ClC/C=C/C[P+](c1ccccc1)(c1ccccc1)c1ccccc1
- EC50: > 200 µM
- IC50: 3.16 µM

Compound: CCN(CC)CCNc1ccc([N+](=O)[O-])c2nc3ccc(OC)cc3c(NCCN(CC)CC)c12
- EC50: > 100 µM
- IC50: 0.178 µM

Compound: CCCN(CCC)C(=O)Cc1c2n(c3ccccc13)Cc1ccccc1-2
- EC50: > 15.1 µM
- IC50: 5.89 µM

Compound: COc1ccc(-c2cc(=O)c3ccc(O)cc3o2)cc1OC
- EC50: > 100 µM
- IC50: 24 µM

Compound: CCOc1cc2cnc3c4cc(OC)c(OC)cc4ccc3c2cc1OC
- EC50: > 70.8 µM
- IC50: 34.7 µM

Compound: COc1ccc(C(C)(C)c2cc3c(cc2OC)OCO3)cc1
- EC50: > 45.7 µM
- IC50: 0.0316 µM

Compound: NC(=O)NC1C(c2ccccc2)=NOC1C(N)=O (stereo not drawn)
- EC50: > 200 µM
- IC50: > 200 µM

Compound: CC(C)CC1NC(=O)CCC(NC(=O)C(Cc2ccc(O)cc2)NC(=O)OCc2ccccc2)C(=O)NC(Cc2ccccc2)C(=O)NC(Cc2ccccc2)NC1=O (stereo not drawn)
- EC50: > 200 µM
- IC50: > 200 µM

Compound: Cc1ccc2c3c(cnc2n1)C(=O)OCCN3C
- EC50: > 200 µM
- IC50: > 200 µM

Compound: COc1cccc(CCNC(=O)CC#N)c1
- outcome: inactive

Compound: CC1(C)CC2(C)ON=C(c3ccccc3)N2c2ccccc2N1 (stereo not drawn)
- EC50: 57.5 µM
- IC50: 105 µM

Compound: CC1=C(C(=O)Nc2ccccc2C)C(c2ccc([N+](=O)[O-])cc2)C(C(=O)Nc2ccccc2C)=C(C)N1
- EC50: > 10.5 µM
- IC50: > 10.5 µM

Compound: CS(=O)(=O)CCC(N)P(=O)(O)O (stereo not drawn)
- EC50: > 200 µM
- IC50: > 200 µM

Compound: CC(C)C12NC(=O)NC(=O)N1CCS2 (stereo not drawn)
- outcome: inactive

Compound: C[N+](C)([O-])CCCNc1c2ccccc2nc2cccc([N+](=O)[O-])c12
- EC50: > 20 µM
- IC50: 0.186 µM

Compound: C[C@H](CCC(=O)O)[C@H]1CC[C@H]2[C@@H]3[C@H](O)[C@H](O)[C@@H]4C[C@H](O)CC[C@]4(C)[C@H]3CC[C@]12C
- EC50: > 200 µM
- IC50: 72.4 µM

Compound: Cc1ccccc1-n1c(C)nc2ccccc2c1=O
- EC50: > 269 µM
- IC50: > 269 µM

Compound: CC(CC(=O)O)C(N)C(=O)O (stereo not drawn)
- EC50: > 200 µM
- IC50: > 200 µM

Compound: CCCc1cc(=O)oc2c3c(cc(OC(C)CI)c12)O[C@H](C)[C@@H](C)C3=O (stereo partly drawn)
- EC50: > 87.1 µM
- IC50: 21.4 µM

Compound: O=C1CC(CC(=O)C2CCCCC2=O)CC(=O)N1 (stereo not drawn)
- outcome: inactive

Compound: O=C(N/C(=C\c1ccc([N+](=O)[O-])cc1)c1nc2ccc(Cl)cc2[nH]1)c1ccccc1
- outcome: inactive

Compound: O=C1C(=O)C(CN2CCOCC2)=C(N2CCOCC2)C(N2CCOCC2)=C1CN1CCOCC1
- EC50: > 200 µM
- IC50: 77.6 µM

Compound: COc1ccc(NC(=O)CC(=O)n2nc(-c3ccccc3)c(N=Nc3ccccc3C(=O)O)c2-c2ccccc2)cc1
- EC50: > 17.8 µM
- IC50: > 17.8 µM

Compound: COC(=O)/C([Se]c1c(C)cc(C)cc1C)=C(/[Se]c1c(C)cc(C)cc1C)C(=O)OC
- outcome: inactive

Compound: O=C1CC(c2ccccc2)C(c2ccccc2)C1=O (stereo not drawn)
- EC50: > 129 µM
- IC50: 52.5 µM

Compound: CCOC(=O)C(C)(C(C)=O)c1nc(=S)[nH]c(=S)[nH]1 (stereo not drawn)
- EC50: > 200 µM
- IC50: 95.5 µM

Compound: Cc1c(NC(=O)Nc2ccc(F)cc2)c(=O)n(-c2ccccc2)n1C
- EC50: > 200 µM
- IC50: > 200 µM

Compound: O=C1CS(=O)(=O)C(c2ccccc2F)N1N1C(=O)CS(=O)(=O)C1c1ccccc1F (stereo not drawn)
- EC50: > 151 µM
- IC50: > 151 µM

Compound: N#Cc1[nH]c(=O)n(-c2cccc3ccccc23)c1N
- EC50: > 200 µM
- IC50: > 200 µM

Compound: C=C[C@@H](C)[C@]1(C(=O)OC)CCCC12OCCO2
- EC50: > 282 µM
- IC50: > 282 µM

Compound: CCOC(=O)c1c(N)sc(C)c1C
- EC50: > 200 µM
- IC50: 117 µM

Compound: O=Nc1ccc2ccccc2c1N=Nc1ccccc1C(=O)O
- EC50: > 200 µM
- IC50: 182 µM

Compound: Cc1ccc(S(=O)(=O)/C(C#N)=C\NC(=S)N=Nc2c(O)[nH]c3ccccc23)cc1
- EC50: > 200 µM
- IC50: > 200 µM

Compound: CN(NC(=O)/C(=C\c1ccco1)NC(=O)c1ccccc1)c1cn[nH]c(=O)c1Cl
- EC50: > 200 µM
- IC50: 38.9 µM

Compound: Cc1ccc(S(=O)(=O)OC2=C/C(=N\c3onc(C)c3C)c3ccccc3C2=O)cc1
- EC50: > 200 µM
- IC50: 3.09 µM

Compound: CCC([NH-])C(=O)O.CCC([NH-])C(=O)O.[Cu+2] (stereo not drawn)
- EC50: > 200 µM
- IC50: 18.2 µM

Compound: CCC1=NC(N/N=C/c2ccco2)=N/C1=C\c1ccco1
- EC50: > 200 µM
- IC50: 110 µM

Compound: CCC(=O)NC1Cc2cc(C)cc(C)c21 (stereo not drawn)
- EC50: > 89.1 µM
- IC50: > 89.1 µM

Compound: CCN(CC)CC1CCCCN1CC(=O)N1c2cc(Cl)ccc2NC(=O)CC1C (stereo not drawn)
- EC50: 97.7 µM
- IC50: > 200 µM

Compound: CC1=Cc2cc3[n-]c(cc4nc(cc5[n-]c(cc1n2)c(C)c5CCC(=O)O)C(CCC(=O)O)=C4C)cc3C.[Cu+2]
- EC50: > 8.71 µM
- IC50: 7.59 µM

Compound: CS(=O)(=O)N1CC(CI)c2ccc(O)cc21 (stereo not drawn)
- EC50: > 200 µM
- IC50: 2.4 µM

Compound: N#CC(C#N)=CN
- EC50: > 200 µM
- IC50: > 200 µM

Compound: O=C1/C(=C/c2ccccc2Cl)Cc2ccccc21
- EC50: > 5.37 µM
- IC50: > 5.37 µM

Compound: CC(=O)Nc1cc(C)ccc1Cl
- EC50: > 1350 µM
- IC50: > 1350 µM

Compound: NCCCNCCSP(=O)(O)O
- EC50: > 1150 µM
- IC50: 257 µM

Compound: CN1C(=O)Cc2ccccc21
- EC50: > 200 µM
- IC50: 151 µM

Compound: Cc1cc(=O)oc2cc(O)cc(OCc3ccccc3)c12
- EC50: > 107 µM
- IC50: 41.7 µM

Compound: COc1cc2c(cc1OC)C/C(=N\O)c1cc(OC)c(OC)cc1/C=C\2
- EC50: > 200 µM
- IC50: 1.74 µM

Compound: CC(C)(C)OC(=O)C1=C2C=C(O)C=CC2(C)N(Cc2ccccc2)C1=N (stereo not drawn)
- EC50: > 2 µM
- IC50: 0.741 µM

Compound: CN1CCc2cc3c4cc2C1Cc1ccc(cc1)Oc1cc(ccc1O)CC1c2c(cc(O)c(c2O4)O3)CCN1C (stereo not drawn)
- outcome: inactive

Compound: Cc1c(NC(=S)NN)c(=O)n(-c2ccccc2)n1C
- EC50: > 200 µM
- IC50: > 200 µM
